Nc1ccc(Br)nn1
solubility (mole fraction)
Settings	in DMF	in acetone	in ethanol	in isopropanol	in methanol	in n-butanol	in n-propanol	in propylene glycol	in toluene	in water
278.15 K	0.0126	0.00754	0.00216	0.00276	0.00108	0.00362	0.00316	0.00191	0.00989	2.57e-05
283.15 K	0.0134	0.00832	0.00233	0.0031	0.00115	0.00405	0.00356	0.00205	0.0108	2.74e-05
288.15 K	0.0144	0.0092	0.00251	0.00346	0.00123	0.00451	0.00401	0.0022	0.0118	2.94e-05
293.15 K	0.0155	0.0102	0.0027	0.00384	0.00131	0.005	0.00446	0.0024	0.0129	3.18e-05
298.15 K	0.0167	0.0113	0.0029	0.0043	0.00142	0.00556	0.00496	0.0026	0.0141	3.43e-05
303.15 K	0.0179	0.0125	0.00314	0.00475	0.00152	0.0062	0.00557	0.00281	0.0154	3.7e-05
308.15 K	0.0192	0.0138	0.0034	0.0053	0.00165	0.00687	0.00617	0.00305	0.0167	3.97e-05
313.15 K	0.0206	0.0153	0.00366	0.00586	0.00178	0.00759	0.00683	0.0033	0.018	4.27e-05
318.15 K	0.0223	0.0169	0.00399	0.00649	0.00192	0.00838	0.00758	0.00357	0.0196	4.6e-05
323.15 K	0.0242	0.0188	0.0044	0.00721	0.00209	0.00933	0.0085	0.00391	0.0213	4.98e-05

From BigSolDB 2.1
